Structures can show the parent of a compound that is named as a salt.
Legend:
σ1-receptor = target: T1, σ1-receptor (Cavia porcellus, UniProt Q60492); assay: Sigma-1 receptor binding assay, [3H](+)-pentazocine, brain membranes; settings: guinea pig brain membranes; for % Binding σ1 10^−7M: compound at 10^−7 M; for % Binding σ1 10^−7M / % Binding σ1 10^−8M: [3H](+)-pentazocine 0.5 nM; for % Binding σ1 10^−8M: compound at 10^−8 M; for Ki: Sigma-1 receptor, [3H](+)-pentazocine
T1 construct: guinea pig brains were homogenized; from tissue; host or cells: guinea pig brain membranes
T1 sequence (Q60492 whole entry): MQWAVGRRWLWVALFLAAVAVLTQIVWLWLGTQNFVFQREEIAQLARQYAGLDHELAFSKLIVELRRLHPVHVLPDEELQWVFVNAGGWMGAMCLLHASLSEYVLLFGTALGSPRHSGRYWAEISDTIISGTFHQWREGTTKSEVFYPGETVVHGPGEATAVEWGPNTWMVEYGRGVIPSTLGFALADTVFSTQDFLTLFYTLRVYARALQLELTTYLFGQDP
Experimental: Brain membrane preparation and binding assays for the σ1-receptor were performed as described (DeHaven-Hudkins et al., 1992) with some modifications. In brief, guinea pig brains were homogenized in 10 vols. (w/v) of Tris-HCl 50 mM 0.32 M sucrose, pH 7.4, with a Kinematica Polytron PT 3000 at 15000 r.p.m. for 30 s. The homogenate was centrifuged at 1000 g for 10 min at 4° C. and the supernatants collected and centrifuged again at 48000 g for 15 min at 4° C. The pellet was resuspended in 10 volumes of Tris-HCl buffer (50 mM, pH 7.4), incubated at 37° C. for 30 min, and centrifuged at 48000 g for 20 min at 4° C. Following this, the pellet was resuspended in fresh Tris-HCl buffer (50 mM, pH 7.4) and stored on ice until use.
Each assay tube contained 10 μL of [^3H](+)-pentazocine (final concentration of 0.5 nM), 900 μL of the tissue suspension to a final assay volume of 1 mL and a final tissue concentration of approximately 30 mg tissue net weight/mL. Non-specific binding was defined by addition of a final concentration of 1 μM haloperidol. All tubes were incubated at 37° C. for 150 min before termination of the reaction by rapid filtration over Schleicher & Schuell GF 3362 glass fibre filters [previously soaked in a solution of 0.5% polyethylenimine for at least 1 h]. Filters were then washed with four times with 4 mL of cold Tris-HCl buffer (50 mM, pH 7.4). Following addition of scintillation cocktail, the samples were allowed to equilibrate overnight. The amount of bound radioactivity was determined by liquid scintillation spectrometry using a Wallac Winspectral 1414 liquid scintillation counter. Protein concentrations were determined by the method of Lowry et al. (1951).

[1] = system: capsaicin-induced allodynia; assay: Von Frey filaments in a model of capsaicin-induced allodynia; assay type: in vivo; parameters: dose or concentration left out as unconfirmed; settings: mice; capsaicin injected into paw; mechanical stimulus (von Frey)
Experimental: In-Vivo-Experiments Using Von Frey Filaments in a Model of Capsaicine—Induced Allodynia:
This model is described in detail in the experimental part of WO 2006/010587 A1, examples 1 and 2, the description being included here by reference. Capsaicin is thereby injected into experimental animals to produce acute pain followed by allodynia.
Briefly after habituation mice were first treated with the test-compound (or not in controls). Then capsaicin (1% DMSO) is injected into their paw resulting in developing pain in the effected paw. The effected paw is then treated with a mechanical stimulus and the latency time before the paw is withdrawn is measured.

CC(=O)N1CCN(CCCCOc2nn(-c3ccc(Cl)c(Cl)c3)c(C)c2C)CC1.O=C(O)C(=O)O [Example 10, 1-(4-(4-(1-(3,4-Dichlo-rophenyl)-4,5-dimethyl-1H-pyrazol-3-yloxy)butyl)piperazin-1-yl)ethanone oxalate]
melting point: 186 to 188 °C

Cc1cc(OCCN2CCC(N)C2)nn1-c1ccc(Cl)c(Cl)c1 (stereo not drawn) [Example 2, 1-{2-[1-(3,4-Dichlorophenyl)-5-methyl-1H-pyrazol-3-yloxy]ethyl}pyrrolidin-3-amine]
% Binding σ1 10^−7M (σ1-receptor): 90.7%
% Binding σ1 10^−8M (σ1-receptor): 53.2%

CC(=O)N1CCN(CCOc2ccn(-c3ccc(Cl)c(Cl)c3)n2)CC1.O=C(O)C(=O)O [Example 6, 1-{4-[2-(1-(3,4-Dichlo-rophenyl)-1H-pyrazol-3-yloxy)ethyl]pipera-zin-1-yl}ethanone oxalate]
melting point: 206 to 210 °C
Ki (σ1-receptor): 4.2 nM
analgesia [1]: 77%

CC(=O)N1CCN(CCOc2ccn(-c3ccc(Cl)cc3Cl)n2)CC1.O=C(O)C(=O)O [Example 11, 1-(4-(2-(1-(2,4-Dichlo-rophenyl)-1H-pyrazol-3-yloxy)ethyl)piperazin-1-yl)ethanone oxalate]
melting point: 156 to 158 °C

CC(=O)C1CCN(CCOc2cc(C)n(-c3ccc(Cl)c(Cl)c3)n2)CC1.O=C(O)C(=O)O [Example 9, 1-(1-(2-(1-(3,4-Dichlo-rophenyl)-5-methyl-1H-pyrazol-3-yloxy)ethyl)piperidin-4-yl)ethanone oxalate]
melting point: 158 to 165 °C
Ki (σ1-receptor): 8.3 nM

Cc1cc(OCCN2CCC(n3cnc4cccnc43)CC2)nn1-c1ccc(Cl)c(Cl)c1 [Example 1, 3-{1-[2-(1-(3,4-Dichlorophenyl)-5-methyl-1H-pyrazol-3-yloxy)ethyl]piperidin-4-yl}-3H-imidazo[4,5-b]pyridine]
melting point: 104 to 107 °C
% Binding σ1 10^−7M (σ1-receptor): 94.4%
% Binding σ1 10^−8M (σ1-receptor): 49.4%

CC(=O)N1CCN(CCOc2nn(-c3ccc(Cl)c(Cl)c3)c(C)c2C)CC1.O=C(O)C(=O)O (hydrate or solvate) [Example 12, 1-(4-(2-(1-(3,4-Dichlo-rophenyl)-4,5-dimethyl-1H-pyrazol-3-yloxy)ethyl)piperazin-1-yl)ethanone oxalate]
melting point: 180 to 184 °C

CC(=O)C1CCN(CCOc2ccn(-c3ccc(Cl)c(Cl)c3)n2)CC1.O=C(O)C(=O)O [Example 5, 1-{1-[2-(1-(3,4-Dichlorophenyl)-1H-pyrazol-3-yloxy)ethyl]piperidin-4-yl}ethanone oxalate]
melting point: 98 to 100 °C
Ki (σ1-receptor): 1.3 ± 0.4 nM

CC(=O)N1CCN(CCOc2cc(C)n(-c3ccc(Cl)c(Cl)c3)n2)CC1 [Example 4, 1-(4-(2-(1-(3,4-dichlorophenyl)-5-methyl-1H-pyrazol-3-yloxy)ethyl)piperazin-1-yl)ethanone]
% Binding σ1 10^−7M (σ1-receptor): 99.4%
% Binding σ1 10^−8M (σ1-receptor): 82.5%

CCOC(=O)N1CCN(CCOc2cc(C)n(-c3ccc(Cl)c(Cl)c3)n2)CC1 [Example 3, Ethyl 4-{2-[1-(3,4-dichlorophenyl)-5-methyl-1H-pyrazol-3-yloxy]ethyl}piperazine carboxylate]
% Binding σ1 10^−7M (σ1-receptor): 99.5%
% Binding σ1 10^−8M (σ1-receptor): 58.4%

CC(=O)N1CCN(CCCCOc2cc(C)n(-c3ccc(Cl)c(Cl)c3)n2)CC1 [Example 13, 1-(4-{4-[1-(3,4-Dichloro-phenyl)-5-methyl-1H-pyrazol-3-yloxy]-butyl}-piperazin-1-yl)-ethanone]
melting point: 147 to 150 °C

CC(=O)C1CCN(CCOc2ccn(-c3ccc(Cl)cc3)n2)CC1.O=C(O)C(=O)O [Example 8, 1-(1-(2-(1-(4-Chloro-phenyl)-1H-pyrazol-3-yloxy)ethyl)piperidin-4-yl)ethanone oxalate]
melting point: 150 to 153 °C
Ki (σ1-receptor): 1.3 nM

CC(=O)C1CCN(CCOc2ccn(-c3ccc(Cl)cc3Cl)n2)CC1.O=C(O)C(=O)O (hydrate or solvate) [Example 7, 1-(1-[2-{1-(2.4-Dichlo-rophenyl)-1H-pyrazol-3-yloxy}ethyl]piperi-din-4-yl)ethanone oxalate]
melting point: 137 to 140 °C

CC(=O)C1CCN(CCOc2ccn(-c3ccc(Cl)cc3Cl)n2)CC1 [Example 7, 1-(1-[2-{1-(2.4-Dichlo-rophenyl)-1H-pyrazol-3-yloxy}ethyl]piperi-din-4-yl)ethanone oxalate]
Ki (σ1-receptor): 1.5 nM
